Results from ChEMBL document CHEMBL1201862, “PubChem BioAssay data set” (2004).
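Cells were grown in 96-well plates and exposed to each compound for 48 hours at five concentrations; endpoints were interpolated linearly between bracketing concentrations, or set to the highest concentration if not reached. At the GI50, growth is halved.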 Calls of active or inactive are those of the source. No stated cut-off is given here; in the data, active = GI50 up to about 1.1 µM and inactive = higher.

Assays:
Assay in all cases: NCI tumour cell line growth inhibition, 48 h
786-0 = tested on: 786-0
A498 = tested on: A498
A549 = tested on: A549
ACHN = tested on: ACHN
CAKI-1 = tested on: CAKI-1
CCRF-CEM = tested on: CCRF-CEM
COLO 205 = tested on: COLO 205
DLD-1 = tested on: DLD-1
DMS-273 = tested on: DMS-273
EKVX = tested on: EKVX
HCC 2998 = tested on: HCC 2998
HCT-116 = tested on: HCT-116
HCT-15 = tested on: HCT-15
HL-60 = tested on: HL-60
HOP-62 = tested on: HOP-62
HOP-92 = tested on: HOP-92
HT-29 = tested on: HT-29
IGROV-1 = tested on: IGROV-1
K562 = tested on: K562
KM-20L2 = tested on: KM-20L2
KM12 = tested on: KM12
LOX IMVI = tested on: LOX IMVI
LXFL 529 = tested on: LXFL 529
M14 = tested on: M14
M19-MEL = tested on: M19-MEL
MOLT-4 = tested on: MOLT-4
NCI-H226 = tested on: NCI-H226
NCI-H23 = tested on: NCI-H23
NCI-H460 = tested on: NCI-H460
OVCAR-4 = tested on: OVCAR-4
OVCAR-5 = tested on: OVCAR-5
RPMI-8226 = tested on: RPMI-8226
RXF 393 = tested on: RXF 393
RXF 631 = tested on: RXF 631
SF-268 = tested on: SF-268
SF-295 = tested on: SF-295
SF-539 = tested on: SF-539
SK-MEL-28 = tested on: SK-MEL-28
SK-MEL-2 = tested on: SK-MEL-2
SK-MEL-5 = tested on: SK-MEL-5
SK-OV-3 = tested on: SK-OV-3
SN12C = tested on: SN12C
SNB-19 = tested on: SNB-19
SNB-75 = tested on: SNB-75
SNB-78 = tested on: SNB-78
SR = tested on: SR
SW-620 = tested on: SW-620
TK-10 = tested on: TK-10
U-251 = tested on: U-251
UACC-257 = tested on: UACC-257
UACC-62 = tested on: UACC-62
UO-31 = tested on: UO-31

`Cc1[nH]c2ccccc2c1C(=O)CC1(O)C(=O)Nc2ccccc21` (configuration not stated) was tested, and the GI50 (786-0) was > 100 µM (inactive), the GI50 (A498) was > 100 µM (inactive) and the GI50 (A549) was > 100 µM (inactive). For the same compound, the GI50 (ACHN) was > 100 µM (inactive), the GI50 (CAKI-1) was > 100 µM (inactive) and the GI50 (CCRF-CEM) was > 100 µM (inactive). For the same compound, the GI50 (COLO 205) was > 100 µM (inactive), the GI50 (DLD-1) was > 100 µM (inactive) and the GI50 (DMS-273) was > 100 µM (inactive). The GI50 (EKVX) was 73.1 µM (inactive), the GI50 (HCC 2998) was > 100 µM (inactive) and the GI50 (HCT-116) was > 100 µM (inactive). The GI50 (HCT-15) was greater than 100 µM, the GI50 (HL-60) was > 100 µM (inactive) and the GI50 (HOP-62) was > 100 µM (inactive). The GI50 (HOP-92) was > 100 µM (inactive), the GI50 (HT-29) was > 100 µM (inactive) and the GI50 (IGROV-1) was > 100 µM (inactive). For the same compound, the GI50 (K562) was > 100 µM (inactive), the GI50 (KM-20L2) was > 100 µM (inactive) and the GI50 (KM12) was > 100 µM (inactive). The GI50 (LOX IMVI) was > 100 µM (inactive), the GI50 (LXFL 529) was > 100 µM (inactive) and the GI50 (M14) was > 100 µM (inactive). For the same compound, the GI50 (M19-MEL) was > 100 µM (inactive), the GI50 (MOLT-4) was > 100 µM (inactive) and the GI50 (NCI-H226) was > 100 µM (inactive). For the same compound, the GI50 (NCI-H23) was > 100 µM (inactive), the GI50 (NCI-H460) was > 100 µM (inactive) and the GI50 (OVCAR-4) was > 100 µM (inactive). For the same compound, the GI50 (OVCAR-5) was > 100 µM (inactive), the GI50 (RPMI-8226) was > 100 µM (inactive) and the GI50 (RXF 393) was > 100 µM (inactive). For the same compound, the GI50 (RXF 631) was > 100 µM (inactive), the GI50 (SF-268) was > 100 µM (inactive) and the GI50 (SF-295) was > 100 µM (inactive). For the same compound, the GI50 (SF-539) was > 100 µM (inactive), the GI50 (SK-MEL-28) was > 100 µM (inactive) and the GI50 (SK-MEL-2) was 87.7 µM (inactive). The GI50 (SK-MEL-5) was > 100 µM (inactive), the GI50 (SK-OV-3) was > 100 µM (inactive) and the GI50 (SN12C) was > 100 µM (inactive). The GI50 (SNB-19) was > 100 µM (inactive), the GI50 (SNB-75) was > 100 µM (inactive) and the GI50 (SNB-78) was 61 µM (inactive). For the same compound, the GI50 (SR) was > 100 µM (inactive), the GI50 (SW-620) was > 100 µM (inactive) and the GI50 (TK-10) was > 100 µM (inactive). The GI50 (U-251) was > 100 µM (inactive), the GI50 (UACC-257) was > 100 µM (inactive) and the GI50 (UACC-62) was > 100 µM (inactive). The GI50 (UO-31) was > 100 µM (inactive).
